No end group written: not given here.
Legend:
[1] = system: SERCA2a; test: SERCA2a level and stability in RASMCs (immunostaining, western blotting); assay type: cell-based, rat; settings: synthetic conditions, 3 μM peptide
Experimental: Rat aortic smooth muscle cells (RASMCs) were fixed in 4% (w/v) paraformaldehyde at room temperature for 10 min, washed with PBS, and then transmitted with 0.1% (v/v) Triton X-100 in PBS for 40 min. After washing and blocking with 3% (w/v) BSA in PBS, the cells were incubated overnight at room temperature with antibodies against SERCA2a (1:250), SERCA2b (1:250), and PCNA (1:50). On the following day, the cells were washed with PBS and incubated with anti-rabbit and anti-mouse IgG conjugated to Alexa Fluor 488 and 594, respectively, for 1 hour at room temperature. The cells were treated with FluoroGuard antifade reagent (Bio-Rad, Hercules, Calif., USA), and the coverslips were examined under a fluorescent microscope.
(§1) Vascular smooth muscle cells (VSMCs) were homogenized in a minimal volume of 50 mM Tris-HCl, pH 7.4, supplemented with a broad-spectrum protease inhibitor cocktail (Calbiochem). The proteins were separated by SDS-PAGE and then transferred to polyvinylidene fluoride membranes (Schleicher & Schuell). After blocking with 5% (w/v) non-fat milk for 1 hour and washing with TBST, the membranes were incubated with antibodies against SERCA2a, SERCA2b (21st century biochemical), PCNA (abcam), GAPDH (Sigma-Aldrich), phospho-eNOS, eNOS, phospho-eIF2α, eIF2α (cell signaling), Vimentin, α-SMA, BMPR2 (Santa cruz), phospho-Akt, Akt (cell signaling), phospho-phospholamban (Merck), and Phospholamban (cell signaling). The membranes were then incubated with horseradish peroxidase-conjugated secondary antibodies (Jackson ImmunoResearch, West Grove, Pa., USA) and developed using a chemiluminescent substrate (Dogen). The blots were scanned and quantified using LAS software.
RASMCs were cultured in DMEM supplemented with 0.1% (v/v) FBS (Contractile) or in DMEM supplemented with 10% (v/v) FBS (Synthetic) in the presence of 3 μM control or ψPLB-SE peptide. Cycloheximide (Sigma) was added to media to a final concentration of 5 μg/ml. Cells were harvested after 0, 3, and 5 days of incubation and their protein extracts were subjected to western blotting.

[2] = system: eNOS and Akt; test: eNOS and Akt phosphorylation in PAECs (western blotting); assay type: cell-based
Experimental: FIGS. 16a, 16b and 16c. (16a-16b) PAECs were treated with 3 μM ψPLB-SE for 1 hour, and protein expression was quantitatively analyzed through western blotting using antibodies against Phospho-eNOS (ser1177), total eNOS, phospho-Akt (Ser473, Thr308), total Akt, and GAPDH. (16c) The pulmonary tissue lysate was subjected to immunoprecipitation using PP1 antibody to investigate the interactions of PP1 with eNOS and Akt depending on the presence or absence of the treatment with ψPLB-SE using respective antibodies therefor.
FIGS. 17a, 17b and 17c. (17a) PAECs were treated with 50 μM LY294002, a PI3K inhibitor, for 24 hours, and then treated with 3 μM ψPLB-SE for 1 hour. Protein expression was quantitatively analyzed through western blotting using antibodies against Phospho-eNOS (ser1177), total eNOS, phospho-Akt (Ser473, Thr308), total Akt, and GAPDH. (17b) PAECs were treated with 10 μM inhibitor IV, an Akt inhibitor, for 2 hours, and then treated with 3 μM ψPLB-SE for 1 hour. Protein expression was quantitatively analyzed through western blotting using antibodies against total eNOS and GAPDH. (17c) PAECs were treated with 100 nM OA, a PP1 inhibitor, for 24 hours, and then treated with 3 μM ψPLB-SE for 1 hour. Protein expression was quantitatively analyzed through western blotting using antibodies against Phospho-eNOS (ser1177), total eNOS, phospho-Akt (Ser473, Thr308), total Akt, and GAPDH.
ψPLB-SE (RAE16TIEMPQ; SEQ ID NO: 2) was derived from the PLB protein sequence surrounding the Ser16 phosphorylation site. To facilitate uptake into cells, the peptide was conjugated to the cell penetrating peptide dNP2 ([…]; SEQ ID NO: 21) or TAT (YGRKKRRQRRR; SEQ ID NO: 22). The peptides used in the present invention were PLB-SE (RAETIEMPQ; SEQ ID NO: 2) and control peptide (RASTIEMPQ; SEQ ID NO: 23). PLB-SE and cell penetrating peptide were connected by a linker peptide (GGG; SEQ ID NO: 24) The peptides (purity of 95% or higher, AnyGen, Gwangju, Korea) was resuspended in double-distilled water or physiological saline at a stock concentration of 3 mM (cells), 2.5 mg/ml (rats), or 500 μg/ml (mice). The rats were treated with 1 mg/kg peptides and mice were treated with 2 mg/kg peptides. The rat aortic smooth muscle cells (RASMCs), human coronary smooth muscle cells (HCSMCs), pulmonary arterial endothelial cells (PAECs), and pulmonary arterial smooth muscle cells (PASMCs) were treated with the peptides at a final concentration of 3 μM for 1 hour. The PI3K inhibitor LY294002 (Millipore, USA), the Akt inhibitor Inhibitor IV (Calbiochem, USA), and the PP1 inhibitor okadaic acid (Sigma Aldrich, USA), used in the experiments using pulmonary arterial endothelial cells (PAECs), were purchased. For the monocrotaline aqueous solution, the monocrotaline powder (Sigma Aldrich, USA) was dissolved in a small amount of a 1 M hydrochloric acid solution (HCL), diluted with sterilized distilled water, and adjusted to pH 7.35 by addition of sodium hydroxide (NaOH). The animals were bred and observed in the same conditions as in the control group during the experiment periods. In addition, the calcium ionophore A23187 and the calpain I and II inhibitors MDL28170 and […] were purchased from Sigma-Aldrich (St. Louis, Mo., USA).
as §1, with “The membranes were then incubated with horseradish peroxidase-conjugated secondary antibodies (Jackson ImmunoResearch, West Grove, Pa., USA) and developed using a chemiluminescent substrate (Dogen). The blots were scanned and quantified using LAS software.” left out

In the case of “RAETIEMPQ (not fully specified) [ψPLB-SE, 9-mer PP1 decoy peptide mimicking phosphorylated PLB; conjugated via GGG linker to cell penetrating peptide dNP2 or TAT]”, the “SERCA2a reduction (immunostaining)” value [1] is reported as “completely inhibited”, the “reduction of SERCA2a (western blotting)” value [1] is reported as “inhibited” and the “stability of SERCA2a” value ([1]; cycloheximide 5 μg/ml) is reported as “restored nearly to the level observed under contractile conditions”. For the same sequence, the “phosphorylation of Akt and eNOS” value ([2]; 100 nM okadaic acid followed by ψPLB-SE) was “further increased”, the “phosphorylation of Akt serine 473 and threonine 308” value ([2]; 3 μM for 1 hour) was “increased” and the “phosphorylation of eNOS serine 1177” value ([2]; 3 μM for 1 hour) was “increased”. For the same sequence, the “phosphorylation of eNOS threonine 495” value ([2]; 3 μM for 1 hour) was “reduced”, the eNOS phosphorylation ([2]; Inhibitor IV 10 μM then ψPLB-SE) was “did not increase” and the “phosphorylation of eNOS and Akt” value ([2]; LY294002 50 μM followed by ψPLB-SE) was “increased”.
